# According to patent US20060127384A1, “Coenzyme Q10 as antiapoptotic agent” (priority 2004, published 2006):
# How the values were obtained:
# [1] = tested on: adipocytes; assay: Apoptotic events in adipocytes from explanted tissues; assay type: cell-based, human; conditions: adipocytes maintained in the presence of coenzyme Q10
# Experimental: Isolation of Adipocytes from Adipose Tissue
# Modification of protocol described by Flower et al., Cytokine 21 (2003) 32-37.
# For isolation, adipocyte tissue was quickly thawed, dissected with scissors into fine fragments in-digest solution consisting of Hank's buffer, supplemented with 2 mg/ml of collagenase (Type II, Sigma) and 1.5% BSA, and incubated at 37° C. for 1 hour in shaker-heater bath. The ratio of digest solution to adipose tissue was 4:1. The tissue digest was filtered through 200 μm Nylon mesh fabric in order to remove non digested tissue fragments. The adipocyte-containing layer and free oil were separated from the resulting stromovascular cell suspension by repeated centrifugation at 250×g for 5 minutes at 4° C. All the cells retrieved were morphologically typical mature adipocytes.
# Detection of Apoptotic Adipocytes by Hoechst Staining […]
# (§1) The stained cells (10^4) were affixed to polylysine-treated glass slides by gentle cyto-centrifugation or by spreading the cellular film directly on the surface, of the glass slide and mounted. Nuclear staining was examined under Nikon fluorescence microscope (20× and 40× magnification) equipped with camera. The results are expressed as the percentage of apoptotic cells (number of apoptotic cells/100 counted cells) in 10 random fields, performed by 3 independent observers.
# [2] = tested on: skin grafts; assay: Apoptotic cells in skin grafts (Hoechst staining / in situ TUNEL); assay type: cell-based, human
# Experimental: FIG. 4. Appearance of skin grafts untreated or treated with coenzyme Q10 and stained with in situ TUNEL.
# FIG. 5. Number of apoptotic cells in skin grafts untreated or treated with coenzyme Q10 and stained with in situ TUNEL. Values are expressed as percentage of total cells (living+dead cells).
# Isolated adipocytes in suspension were fixed with 4% paraformaldehyde for 20 min at RT (room temperature), washed 3 times with PBS and permeabilized for 5 min with 0.25% Triton X-100 in PBS solution. Washes with PBS were repeated 3 times for 5 min each time and the cells were stained with Hoechst 33258 (Sigma) nuclear dye for 30 min at 37° C. followed by washing in PBS 3 times for 5 min.
# as §1
# [3] = tested on: cultured keratocytes; conditions: excimer laser irradiation; cited from earlier work
# [4] = tested on: caspase 9; assay: Quantification of caspase 9 in adipocytes by Western blotting and densitometry; assay type: cell-based, human
# Experimental: (§2) Quantification of Apoptotic Factors (cytocrome c, caspase 3 and 9)
# (§3) Adipocytes have been collected both manually using a “Luer-lock” 10 cc. syringe following Coleman's technique, and by a liposuctor with a negative pressure adjusted to maintain −680 mmHg. After the collection, half of the sample was treated with coenzyme Q10 dissolved in Lutrol (or another amphipathic molecule) at 10 μM concentration, as reported in previous works (1, 3). The other half of collected sample was treated with Lutrol (or another amphipathic molecule) alone. Both samples were then -centrifuged. The interphase and cell pellet were collected, following Coleman's technique (6) and maintained in liquid Nitrogen.
# (§4) Preparation of protein cell lysates (6) is a modification of the -method described by Rioux (7).
# (§5) Liposucted cell suspensions were centrifuged at 800 g for 10 minutes. 1 ml of lysis buffer (0.75 M NaCl, 10 mM HEPES, 1 mM EDTA, 1% Triton-X-100) containing a protease inhibitor mixture (final concentrations 1 μg/ml leupeptin, 10 μg/ml benzamidine, 1 μg/ml chymostatin, 1 μg/ml pepstatin A and 100 μg/ml PMSF) was added and the cell pellet was sonicated two times successively (20 sec, 100 W) to obtain whole cellular lysate. The lysate was further cleared by centrifugation at 10.000 g for 30 min in mini centrifuge. After removing the fat layer and the pellet of cellular debris, the protein content was quantified with Bradford reagent by spectrophotometry. Protein lysates (30 μg/lane) were separated by SDS-PAGE (10 and 15%) and analysed by Western blot analysis with specific antibodies.
# (§6) Quantification of apoptotic factors was performed by densitometry.
# [5] = tested on: cytochrome C; assay: Dosage of cytoplasmic cytochrome C in adipocytes by Western blotting; assay type: cell-based, human; conditions: liposucted adipocytes, Western blot (FIG. 1)
# Experimental: as §2, §3, §4
# Liposucted cell suspensions were centrifuged at 800 g for 10 minutes. […] After removing the fat layer and the pellet of cellular debris, the protein content was quantified with Bradford reagent by spectrophotometry. Protein lysates (30 μg/lane) were separated by SDS-PAGE (10 and 15%) and analysed by Western blot analysis with specific antibodies.
# as §6
# [6] = tested on: caspase 3; assay: Quantification of caspase 3 in adipocytes by Western blotting and densitometry; assay type: cell-based, human
# Experimental: as §2, §3, §4, §5, §6
# [7] = tested on: mitochondrial Permeability Transition Pore (mPTP); conditions: in response to any apoptotic stimulus; cited from earlier work
# [8] = adipocytes collected manually (Luer-lock syringe) and by liposuctor, 10 μM in Lutrol, vs untreated samples
# [9] = adipocytes collected with Coleman's technique, added prior to centrifugation and purification
# [10] = cells from explanted tissues after ex vivo treatments, in the presence of coenzyme Q10
structure (smiles),measurement,setting,value
"COC1=C(OC)C(=O)C(C/C=C(\C)CC/C=C(\C)CC/C=C(\C)CC/C=C(\C)CC/C=C(\C)CC/C=C(\C)CC/C=C(\C)CC/C=C(\C)CC/C=C(\C)CCC=C(C)C)=C(C)C1=O [coenzyme Q10, 2.3-dimethoxy-5-methyl-6-multiprenyl-1.4-benzoquinone]",number of apoptotic events,[1],significantly reduced
same,number of apoptotic events,[2]; cutaneous cells maintained in the presence of coenzyme Q10,significantly reduced
same,percentage of apoptotic cells,"[2]; skin graft, glass slides of treated vs non treated cells (FIG. 4)",dramatically lower
same,cell morphology,"[2]; skin graft, treated cells, non treated cells showed nuclear condensation and fragmentation",normal morphology of a living cell
same,number of apoptotic cells,[2]; skin grafts immersed in coenzyme Q10-saline solution (FIG. 5),drastically decreased
same,apoptosis,[3],able to inhibit apoptosis
same,reduction of caspase 9 activity compared to controls (FIG. 2),[4]; [8],~50%
same,caspase 9 activity evaluated by Western blotting,[4]; [9],dramatically reduced
same,reduction of caspase 9 level,[4]; [10],more than 50%
same,translocation of cytochrome C to cytosol,[5],significantly inhibited
same,reduction of caspase 3 activity compared to controls (FIG. 2),[6]; [8],~50%
same,caspase 3 activity evaluated by Western blotting,[6]; [9],dramatically reduced
same,reduction of caspase 3 level,[6]; [10],more than 50%
same,disruption of mitochondrial transmembrane electrochemical gradient and opening of mPTP,[7],directly inhibits
